Key:
Assay type in all cases: in vivo
barnyard grass [1] = test: Test Example 1: weedkilling efficacy, preemergent weed treatment in the submerged state; A: barnyard grass; settings: treatment dosage 1000 g/ha
How it was run: (§1)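 Alluvial soil in Wagner pots flooded to 4 cm; barnyard grass, bulrush and oval-leafed pondweed seeds sown, then 2.5-leaf rice seedlings transplanted. Same day, emulsified compound diluted in water to set g/ha dosages and applied to water surface; greenhouse 25–30 °C, effect scored by criteria after 3 weeks.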

bulrush [2] = test: Test Example 1: weedkilling efficacy, preemergent weed treatment in the submerged state; B: bulrush; settings: treatment dosage 1000 g/ha
How it was run: as §1

oval-leafed pondweed [3] = test: Test Example 1: weedkilling efficacy, preemergent weed treatment in the submerged state; C: oval-leafed pondweed; settings: treatment dosage 1000 g/ha
How it was run: as §1

transplanted rice = test: Test Example 1: preemergent weed treatment in the submerged state, effect on crop; a: transplanted rice; settings: treatment dosage 1000 g/ha
How it was run: as §1

barnyard grass [4] = test: Test Example 2: weedkilling efficacy, growth period weed treatment in the submerged state; A: barnyard grass; settings: treatment dosage 1000 g/ha
How it was run: (§2)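 First, alluvial soil in pots is flooded to 4 cm and mixed seed is sown. Next, plants grow in a greenhouse at 25 to 30° C until the 1-2 leaf stage. Then diluted emulsion is applied onto the water surface at the given g/ha rate, and injury is assessed after 3 weeks.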

bulrush [5] = test: Test Example 2: weedkilling efficacy, growth period weed treatment in the submerged state; B: bulrush; settings: treatment dosage 1000 g/ha
How it was run: as §2

oval-leafed pondweed [6] = test: Test Example 2: weedkilling efficacy, growth period weed treatment in the submerged state; C: oval-leafed pondweed; settings: treatment dosage 1000 g/ha
How it was run: as §2

crabgrass [7] = test: Test Example 3: weedkilling efficacy through soil treatment; D: crabgrass; settings: treatment dosage 1250 g/ha
How it was run: (§3)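 Crop and weed responses were judged three weeks after a uniform surface spray of the water-diluted emulsion at the given g/ha rate. Seeds sat beneath about 1.5 cm of sterilized diluvial soil, and boxes stood in a greenhouse at 25 to 30° C.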

green foxtail [8] = test: Test Example 3: weedkilling efficacy through soil treatment; E: green foxtail; settings: treatment dosage 1250 g/ha
How it was run: as §3

wild oat [9] = test: Test Example 3: weedkilling efficacy through soil treatment; G: wild oat; settings: treatment dosage 1250 g/ha
How it was run: as §3

black-grass [10] = test: Test Example 3: weedkilling efficacy through soil treatment; H: black-grass; settings: treatment dosage 1250 g/ha
How it was run: as §3

Italian ryegrass [11] = test: Test Example 3: weedkilling efficacy through soil treatment; I: Italian ryegrass; settings: treatment dosage 1250 g/ha
How it was run: as §3

Indian mallow [12] = test: Test Example 3: weedkilling efficacy through soil treatment; K: Indian mallow; settings: treatment dosage 1250 g/ha
How it was run: as §3

redroot pigweed [13] = test: Test Example 3: weedkilling efficacy through soil treatment; L: redroot pigweed; settings: treatment dosage 1250 g/ha
How it was run: as §3

fig-leafed goosefoot [14] = test: Test Example 3: weedkilling efficacy through soil treatment; M: fig-leafed goosefoot; settings: treatment dosage 1250 g/ha
How it was run: as §3

chickweed [15] = test: Test Example 3: weedkilling efficacy through soil treatment; N: chickweed; settings: treatment dosage 1250 g/ha
How it was run: as §3

catchweed [16] = test: Test Example 3: weedkilling efficacy through soil treatment; O: catchweed; settings: treatment dosage 1250 g/ha
How it was run: as §3

birds-eye speedwell [17] = test: Test Example 3: weedkilling efficacy through soil treatment; p: birds-eye speedwell; settings: treatment dosage 1250 g/ha
How it was run: as §3

directly sown rice [18] = test: Test Example 3: soil treatment, effect on crop; b: directly sown rice; settings: treatment dosage 1250 g/ha
How it was run: as §3

corn [19] = test: Test Example 3: soil treatment, effect on crop; c: corn; settings: treatment dosage 1250 g/ha
How it was run: as §3

soybean [20] = test: Test Example 3: soil treatment, effect on crop; d: soybean; settings: treatment dosage 1250 g/ha
How it was run: as §3

wheat [21] = test: Test Example 3: soil treatment, effect on crop; e: wheat; settings: treatment dosage 1250 g/ha
How it was run: as §3

beet [22] = test: Test Example 3: soil treatment, effect on crop; f: beet; settings: treatment dosage 1250 g/ha
How it was run: as §3

crabgrass [23] = test: Test Example 4: weedkilling efficacy by foliar treatment; D: crabgrass; settings: treatment dosage 1250 g/ha
How it was run: (§4)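 Seeds are spot-sown into sterilized diluvial soil and covered with about 1.5 cm of soil. After 14 days' greenhouse growth at 25 to 30° C, plants are sprayed on stems and leaves with diluted emulsion at the stated g/ha rate, then scored at 3 weeks.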

green foxtail [24] = test: Test Example 4: weedkilling efficacy by foliar treatment; E: green foxtail; settings: treatment dosage 1250 g/ha
How it was run: as §4

wild oat [25] = test: Test Example 4: weedkilling efficacy by foliar treatment; G: wild oat; settings: treatment dosage 1250 g/ha
How it was run: as §4

black-grass [26] = test: Test Example 4: weedkilling efficacy by foliar treatment; H: black-grass; settings: treatment dosage 1250 g/ha
How it was run: as §4

Italian ryegrass [27] = test: Test Example 4: weedkilling efficacy by foliar treatment; I: Italian ryegrass; settings: treatment dosage 1250 g/ha
How it was run: as §4

Indian mallow [28] = test: Test Example 4: weedkilling efficacy by foliar treatment; K: Indian mallow; settings: treatment dosage 1250 g/ha
How it was run: as §4

redroot pigweed [29] = test: Test Example 4: weedkilling efficacy by foliar treatment; L: redroot pigweed; settings: treatment dosage 1250 g/ha
How it was run: as §4

fig-leafed goosefoot [30] = test: Test Example 4: weedkilling efficacy by foliar treatment; M: fig-leafed goosefoot; settings: treatment dosage 1250 g/ha
How it was run: as §4

chickweed [31] = test: Test Example 4: weedkilling efficacy by foliar treatment; N: chickweed; settings: treatment dosage 1250 g/ha
How it was run: as §4

catchweed [32] = test: Test Example 4: weedkilling efficacy by foliar treatment; O: catchweed; settings: treatment dosage 1250 g/ha
How it was run: as §4

birds-eye speedwell [33] = test: Test Example 4: weedkilling efficacy by foliar treatment; p: birds-eye speedwell; settings: treatment dosage 1250 g/ha
How it was run: as §4

directly sown rice [34] = test: Test Example 4: foliar treatment, effect on crop; b: directly sown rice; settings: treatment dosage 1250 g/ha
How it was run: as §4

corn [35] = test: Test Example 4: foliar treatment, effect on crop; c: corn; settings: treatment dosage 1250 g/ha
How it was run: as §4

soybean [36] = test: Test Example 4: foliar treatment, effect on crop; d: soybean; settings: treatment dosage 1250 g/ha
How it was run: as §4

wheat [37] = test: Test Example 4: foliar treatment, effect on crop; e: wheat; settings: treatment dosage 1250 g/ha
How it was run: as §4

beet [38] = test: Test Example 4: foliar treatment, effect on crop; f: beet; settings: treatment dosage 1250 g/ha
How it was run: as §4

SMILES: CC1=C(c2cccnc2Cl)C(=O)N(C(C)(C)C(=O)Nc2cccc(Cl)n2)CO1 [B-2-20]
- A (barnyard grass) weedkilling efficacy grade (barnyard grass [1]): 5 (weed kill ratio 90% or more, (practically complete withering))
- B (bulrush) weedkilling efficacy grade (bulrush [2]): 5 (weed kill ratio 90% or more, (practically complete withering))
- C (oval-leafed pondweed) weedkilling efficacy grade (oval-leafed pondweed [3]): 4 (weed kill ratio 70% or more, less than 90%)
- a (transplanted rice) effect on crop grade (transplanted rice): 0 (weed kill ratio 5% or less (practically no effect))
- A (barnyard grass) weedkilling efficacy grade (barnyard grass [4]): 1 (weed kill ratio 5% or more, less than 20%)
- B (bulrush) weedkilling efficacy grade (bulrush [5]): 5 (weed kill ratio 90% or more, (practically complete withering))
- C (oval-leafed pondweed) weedkilling efficacy grade (oval-leafed pondweed [6]): 3 (weed kill ratio 40% or more, less than 70%)
- D (crabgrass) weedkilling efficacy grade (crabgrass [7]): 3 (weed kill ratio 40% or more, less than 70%)
- E (green foxtail) weedkilling efficacy grade (green foxtail [8]): 5 (weed kill ratio 90% or more, (practically complete withering))
- G (wild oat) weedkilling efficacy grade (wild oat [9]): 0 (weed kill ratio 5% or less (practically no effect))
- H (black-grass) weedkilling efficacy grade (black-grass [10]): 5 (weed kill ratio 90% or more, (practically complete withering))
- I (Italian ryegrass) weedkilling efficacy grade (Italian ryegrass [11]): 5 (weed kill ratio 90% or more, (practically complete withering))
- K (Indian mallow) weedkilling efficacy grade (Indian mallow [12]): 2 (weed kill ratio 20% or more, less than 40%)
- L (redroot pigweed) weedkilling efficacy grade (redroot pigweed [13]): 4 (weed kill ratio 70% or more, less than 90%)
- M (fig-leafed goosefoot) weedkilling efficacy grade (fig-leafed goosefoot [14]): 4 (weed kill ratio 70% or more, less than 90%)
- N (chickweed) weedkilling efficacy grade (chickweed [15]): 3 (weed kill ratio 40% or more, less than 70%)
- O (catchweed) weedkilling efficacy grade (catchweed [16]): 0 (weed kill ratio 5% or less (practically no effect))
- P (birds-eye speedwell) weedkilling efficacy grade (birds-eye speedwell [17]): 4 (weed kill ratio 70% or more, less than 90%)
- b (directly sown rice) effect on crop grade (directly sown rice [18]): 4 (weed kill ratio 70% or more, less than 90%)
- c (corn) effect on crop grade (corn [19]): 0 (weed kill ratio 5% or less (practically no effect))
- d (soybean) effect on crop grade (soybean [20]): 0 (weed kill ratio 5% or less (practically no effect))
- e (wheat) effect on crop grade (wheat [21]): 0 (weed kill ratio 5% or less (practically no effect))
- f (beet) effect on crop grade (beet [22]): 4 (weed kill ratio 70% or more, less than 90%)
- D (crabgrass) weedkilling efficacy grade (crabgrass [23]): 5 (weed kill ratio 90% or more, (practically complete withering))
- E (green foxtail) weedkilling efficacy grade (green foxtail [24]): 5 (weed kill ratio 90% or more, (practically complete withering))
- G (wild oat) weedkilling efficacy grade (wild oat [25]): 0 (weed kill ratio 5% or less (practically no effect))
- H (black-grass) weedkilling efficacy grade (black-grass [26]): 4 (weed kill ratio 70% or more, less than 90%)
- I (Italian ryegrass) weedkilling efficacy grade (Italian ryegrass [27]): 4 (weed kill ratio 70% or more, less than 90%)
- K (Indian mallow) weedkilling efficacy grade (Indian mallow [28]): 0 (weed kill ratio 5% or less (practically no effect))
- L (redroot pigweed) weedkilling efficacy grade (redroot pigweed [29]): 3 (weed kill ratio 40% or more, less than 70%)
- M (fig-leafed goosefoot) weedkilling efficacy grade (fig-leafed goosefoot [30]): 3 (weed kill ratio 40% or more, less than 70%)
- N (chickweed) weedkilling efficacy grade (chickweed [31]): 2 (weed kill ratio 20% or more, less than 40%)
- O (catchweed) weedkilling efficacy grade (catchweed [32]): 0 (weed kill ratio 5% or less (practically no effect))
- P (birds-eye speedwell) weedkilling efficacy grade (birds-eye speedwell [33]): 4 (weed kill ratio 70% or more, less than 90%)
- b (directly sown rice) effect on crop grade (directly sown rice [34]): 0 (weed kill ratio 5% or less (practically no effect))
- c (corn) effect on crop grade (corn [35]): 1 (weed kill ratio 5% or more, less than 20%)
- d (soybean) effect on crop grade (soybean [36]): 3 (weed kill ratio 40% or more, less than 70%)
- e (wheat) effect on crop grade (wheat [37]): 0 (weed kill ratio 5% or less (practically no effect))
- f (beet) effect on crop grade (beet [38]): 4 (weed kill ratio 70% or more, less than 90%)

Source: patent publication US9738634B2, “Heterocyclic amide compound and herbicide” (SYNGENTA PARTICIPATIONS AG, priority 2013, dated 2017)
